Source: patent US8304239B2, “Direct regeneration of plantlets in Jatropha curcas” (Reliance Life Sciences PVT Ltd., priority 2006, dated 2012)

How the values were obtained:
[1] = system: shoots of Jatropha curcas; assay: Rooting of well grown shoots on full strength MS medium; assay type: cell-based; conditions: full strength MS medium supplemented with IBA (0.41 μM)
Procedure: Well grown shoots of Jatropha curcas were separated individually and rooted on full strength MS medium supplemented with IBA (0.41 μM). Rooting was 80% and occurred after 30-45 days of culture without any intermediary callus phase. (FIG. 4)

[2] = system: Jatropha leaf disc explants; assay: Adventitious bud induction and callus formation from leaf disc explants on initiation media; assay type: cell-based, Jatropha curcas; conditions: TDZ treatment
Text: Micropropagated true-to-type Jatropha curcas plants were produced and leaf discs were isolated and sterilized using the methods described in Example 1.
Experiments were set-up in a single-factor CRD (one-way ANOVA) to identify the most optimal concentrations of TDZ, BAP, and IBA in the initiation media. Initiated shoots were further propagated as described in the above Examples by being transferred to proliferation and elongation medium which was MS medium (Table 2) with 3% sucrose (w/v), pH 5.8 and solidified with 0.8% agar supplemented with TDZ (0.22 μM)+BAP (4.44 μM)+gibberelic acid (0.70 μM)+IBA (0.50 μM).
All the treatments were performed with 25 replicates, each replication having 8 leaf discs. Data on number of shoots per leaf disc were recorded after 6 weeks of culture.
Leaf discs cultured on almost all hormonal combinations readily produced hard and compact callus on cut surface within 30 days of culture. The adventitious bud induction from leaf disc explants was studied in presence of various concentrations of TDZ and BAP as a source of cytokinin along with very low levels of IBA.
Data scored after 6 weeks of culture inoculation.

Row | Structure (SMILES) | Time until rooting occurred [1] [days] | Rooting ([1]; without intermediary callus phase) [%] | total number of shoot bud induction per leaf disc [2]
1 | O=C(O)CCCc1c[nH]c2ccccc12 [IBA, indole-3-butyric acid] | 30 to 45 | 80 | 
2 | O=C(Nc1ccccc1)Nc1cnns1 [TDZ, 1-phenyl-3-(1,2,3-thiadiazol-5-yl) urea] |  |  | 4-20 buds
